In US9873709B2 (priority 2013, dated 2018):

Tested on: JAK1-dependent STAT6 phosphorylation downstream of IL-13 stimulation in TF-1 human erythroleukemia cells
Experiment: cells
Settings: TF-1, read-out: IL-13-pSTAT6 IC50

SMILES	IC50
CCOC(=O)N1CC=C(c2cccn3nc(Nc4ccc(C(=O)N5CCCCC5c5cccnc5)cc4)nc23)CC1 (stereo not drawn) [Example 2-232, ethyl 4-[2-[4-[2-(3-pyridyl)piperidine-1-carbonyl]anilino]-[1,2,4]triazolo[1,5-a]pyridin-8-yl]-3,6-dihydro-2H-pyridine-1-carboxylate]	288 nM
CN1CCCC(CN(C)C(=O)c2ccc(Nc3nc4c(C5=CCN(C(=O)CCC(F)(F)F)CC5)cccn4n3)cc2)C1 (stereo not drawn) [Example 2-389, N-methyl-N-[(1-methyl-3-piperidyl)methyl]-4-[[8-[1-(4,4,4-trifluorobutanoyl)-3,6-dihydro-2H-pyridin-4-yl]-[1,2,4]triazolo[1,5-a]pyridin-2-yl]amino]benzamide]	12.6 nM
O=C(c1ccc(Nc2nc3c(N4CCC(O)(c5ccc(Cl)cc5)CC4)cccn3n2)cc1)N1CC2(CCNCC2)C1 [Example 1-199, [4-[[8-[4-(4-chlorophenyl)-4-hydroxy-1-piperidyl]-[1,2,4]triazolo[1,5-a]pyridin-2-yl]amino]phenyl]-(2,7-diazaspiro[3.5]nonan-2-yl)methanone]	106 nM
CCOC(=O)N1CC=C(c2cccn3nc(Nc4ccc(C(=O)N(C)Cc5ccncc5)cc4)nc23)CC1 [Example 2-361, ethyl 4-[2-[4-[methyl(4-pyridylmethyl)carbamoyl]anilino]-[1,2,4]triazolo[1,5-a]pyridin-8-yl]-3,6-dihydro-2H-pyridine-1-carboxylate]	8.9 nM
O=C(CCC(F)(F)F)N1CC=C(c2cccn3nc(Nc4ccc(C(=O)N(CCO)Cc5cccnc5)cc4)nc23)CC1 [Example 2-279, N-(2-hydroxyethyl)-N-(3-pyridylmethyl)-4-[[8-[1-(4,4,4-trifluorobutanoyl)-3,6-dihydro-2H-pyridin-4-yl]-[1,2,4]triazolo[1,5-a]pyridin-2-yl]amino]benzamide]	38.8 nM
CCOC(=O)N1CC=C(c2cccn3nc(Nc4ccc(C(=O)NCCC5CCNCC5)cc4)nc23)CC1 [Example 2-13, ethyl 4-[2-[4-[2-(4-piperidyl)ethylcarbamoyl]anilino]-[1,2,4]triazolo[1,5-a]pyridin-8-yl]-3,6-dihydro-2H-pyridine-1-carboxylate]	338 nM
CN1CCC2(CC1)CN(C(=O)c1ccc(Nc3nc4c(N5CCC(O)(c6ccc(Cl)cc6)CC5)cccn4n3)cc1)C2 [Example 1-81, [4-[[8-[4-(4-chlorophenyl)-4-hydroxy-1-piperidyl]-[1,2,4]triazolo[1,5-a]pyridin-2-yl]amino]phenyl]-(7-methyl-2,7-diazaspiro[3.5]nonan-2-yl)methanone]	10.9 nM
CCOC(=O)N1CC=C(c2cccn3nc(Nc4ccc(C(=O)N5CC6(CCNC6)C5)cc4)nc23)CC1 [Example 2-372, ethyl 4-[2-[4-(2,7-diazaspiro[3.4]octane-2-carbonyl)anilino]-[1,2,4]triazolo[1,5-a]pyridin-8-yl]-3,6-dihydro-2H-pyridine-1-carboxylate]	296 nM
CNC1CCN(C(=O)c2ccc(Nc3nc4c(C5=CCN(C(=O)CCC(F)(F)F)CC5)cccn4n3)cc2)C1 (stereo not drawn) [Example 2-85, 4,4,4-trifluoro-1-[4-[2-[4-[3-(methylamino)pyrrolidine-1-carbonyl]anilino]-[1,2,4]triazolo[1,5-a]pyridin-8-yl]-3,6-dihydro-2H-pyridin-1-yl]butan-1-one]	62.6 nM
CN1CCC(N(C)C(=O)c2ccc(Nc3nc4c(C5=CCN(C(=O)CC(F)(F)F)CC5)cccn4n3)cc2)CC1 [Example 2-163, N-methyl-N-(1-methyl-4-piperidyl)-4-[[8-[1-(3,3,3-trifluoropropanoyl)-3,6-dihydro-2H-pyridin-4-yl]-[1,2,4]triazolo[1,5-a]pyridin-2-yl]amino]benzamide]	28.4 nM
O=C(CCC(F)(F)F)N1CC=C(c2cccn3nc(Nc4ccc(C(=O)N5CCC6(CCCNC6)C5)cc4)nc23)CC1 (stereo not drawn) [Example 2-253, 1-[4-[2-[4-(2,9-diazaspiro[4.5]decane-2-carbonyl)anilino]-[1,2,4]triazolo[1,5-a]pyridin-8-yl]-3,6-dihydro-2H-pyridin-1-yl]-4,4,4-trifluoro-butan-1-one]	151 nM
CCN1CCC(CN(C)C(=O)c2ccc(Nc3nc4c(C5=CCN(C(=O)CCC(F)(F)F)CC5)cccn4n3)cc2)C1 (stereo not drawn) [Example 2-39, N-[(1-ethylpyrrolidin-3-yl)methyl]-N-methyl-4-[[8-[1-(4,4,4-trifluorobutanoyl)-3,6-dihydro-2H-pyridin-4-yl]-[1,2,4]triazolo[1,5-a]pyridin-2-yl]amino]benzamide]	34.7 nM
O=C(CCC(F)(F)F)N1CC=C(c2cccn3nc(Nc4ccc(C(=O)N5CCCC6(CCCN6)CC5)cc4)nc23)CC1 (stereo not drawn) [Example 2-384, 1-[4-[2-[4-(1,9-diazaspiro[4.6]undecane-9-carbonyl)anilino]-[1,2,4]triazolo[1,5-a]pyridin-8-yl]-3,6-dihydro-2H-pyridin-1-yl]-4,4,4-trifluoro-butan-1-one]	93 nM
O=C(NCCC1CCCNC1)c1ccc(Nc2nc3c(C4=CCN(C(=O)CCC(F)(F)F)CC4)cccn3n2)cc1 (stereo not drawn) [Example 2-193, N-[2-(3-piperidyl)ethyl]-4-[[8-[1-(4,4,4-trifluorobutanoyl)-3,6-dihydro-2H-pyridin-4-yl]-[1,2,4]triazolo[1,5-a]pyridin-2-yl]amino]benzamide]	278 nM
CN(C)CCNC(=O)c1ccc(Nc2nc3c(C4=CCN(C(=O)CCC(F)(F)F)CC4)cccn3n2)cc1 [Example 2-336, N-[2-(dimethylamino)ethyl]-4-[[8-[1-(4,4,4-trifluorobutanoyl)-3,6-dihydro-2H-pyridin-4-yl]-[1,2,4]triazolo[1,5-a]pyridin-2-yl]amino]benzamide]	8.6 nM
CN1CCN(CCNC(=O)c2ccc(Nc3nc4c(N5CCC(O)(c6ccc(Cl)cc6)CC5)cccn4n3)cc2)CC1 [Example 1-97, 4-[[8-[4-(4-chlorophenyl)-4-hydroxy-1-piperidyl]-[1,2,4]triazolo[1,5-a]pyridin-2-yl]amino]-N-[2-(4-methylpiperazin-1-yl)ethyl]benzamide]	25 nM
CN1CCN(C(=O)C2CN(C(=O)c3ccc(Nc4nc5c(N6CCC(O)(c7ccc(Cl)cc7)CC6)cccn5n4)cc3)C2)CC1 [Example 1-165, [4-[[8-[4-(4-chlorophenyl)-4-hydroxy-1-piperidyl]-[1,2,4]triazolo[1,5-a]pyridin-2-yl]amino]phenyl]-[3-(4-methylpiperazine-1-carbonyl)azetidin-1-yl]methanone]	25.1 nM
O=C(NCC1CCNC1)c1ccc(Nc2nc3c(N4CCC(O)(c5ccc(Cl)cc5)CC4)cccn3n2)cc1 (stereo not drawn) [Example 1-180, 4-[[8-[4-(4-chlorophenyl)-4-hydroxy-1-piperidyl]-[1,2,4]triazolo[1,5-a]pyridin-2-yl]amino]-N-(pyrrolidin-3-ylmethyl)benzamide]	322 nM
CCOC(=O)N1CC=C(c2cccn3nc(Nc4ccc(C(=O)N5CCN(C)CC(CO)C5)cc4)nc23)CC1 (stereo not drawn) [Example 2-20, ethyl 4-[2-[4-[6-(hydroxymethyl)-4-methyl-1,4-diazepane-1-carbonyl]anilino]-[1,2,4]triazolo[1,5-a]pyridin-8-yl]-3,6-dihydro-2H-pyridine-1-carboxylate]	256 nM
O=C(CCC(F)(F)F)N1CC=C(c2cccn3nc(Nc4ccc(C(=O)N5Cc6cccnc6C5)cc4)nc23)CC1 [Example 2-146, 1-[4-[2-[4-(5,7-dihydropyrrolo[3,4-b]pyridine-6-carbonyl)anilino]-[1,2,4]triazolo[1,5-a]pyridin-8-yl]-3,6-dihydro-2H-pyridin-1-yl]-4,4,4-trifluoro-butan-1-one]	6.5 nM
O=C(CCC(F)(F)F)N1CC=C(c2cccn3nc(Nc4ccc(C(=O)N5CCCC(c6ccccn6)C5)cc4)nc23)CC1 (stereo not drawn) [Example 2-341, 4,4,4-trifluoro-1-[4-[2-[4-[3-(2-pyridyl)piperidine-1-carbonyl]anilino]-[1,2,4]triazolo[1,5-a]pyridin-8-yl]-3,6-dihydro-2H-pyridin-1-yl]butan-1-one]	11.4 nM
CN1CCC(N(C)C(=O)c2ccc(Nc3nc4c(C5=CCN(C(=O)C6CCOCC6)CC5)cccn4n3)cc2)CC1 [Example 2-105, N-methyl-N-(1-methyl-4-piperidyl)-4-[[8-[1-(tetrahydropyran-4-carbonyl)-3,6-dihydro-2H-pyridin-4-yl]-[1,2,4]triazolo[1,5-a]pyridin-2-yl]amino]benzamide]	373 nM
CC1CCCCN1CCCNC(=O)c1ccc(Nc2nc3c(C4=CCN(C(=O)CCC(F)(F)F)CC4)cccn3n2)cc1 (stereo not drawn) [Example 2-47, N-[3-(2-methyl-1-piperidyl)propyl]-4-[[8-[1-(4,4,4-trifluorobutanoyl)-3,6-dihydro-2H-pyridin-4-yl]-[1,2,4]triazolo[1,5-a]pyridin-2-yl]amino]benzamide]	15.7 nM
CN(CCN)C(=O)c1ccc(Nc2nc3c(C4=CCN(C(=O)CCC(F)(F)F)CC4)cccn3n2)cc1 [Example 2-441, N-(2-aminoethyl)-N-methyl-4-[[8-[1-(4,4,4-trifluorobutanoyl)-3,6-dihydro-2H-pyridin-4-yl]-[1,2,4]triazolo[1,5-a]pyridin-2-yl]amino]benzamide]	82.4 nM
O=C(NC1COC2(CCNCC2)C1)c1ccc(Nc2nc3c(C4=CCN(C(=O)CCC(F)(F)F)CC4)cccn3n2)cc1 (stereo not drawn) [Example 2-188, N-(1-oxa-8-azaspiro[4.5]decan-3-yl)-4-[[8-[1-(4,4,4-trifluorobutanoyl)-3,6-dihydro-2H-pyridin-4-yl]-[1,2,4]triazolo[1,5-a]pyridin-2-yl]amino]benzamide]	239 nM
CN1CCC(N(C)C(=O)c2ccc(Nc3nc4c(C5=CCN(C(=O)OCC(F)(F)F)CC5)cccn4n3)cc2)CC1 [Example 2-108, 2,2,2-trifluoroethyl 4-[2-[4-[methyl-(1-methyl-4-piperidyl)carbamoyl]anilino]-[1,2,4]triazolo[1,5-a]pyridin-8-yl]-3,6-dihydro-2H-pyridine-1-carboxylate]	9.8 nM
CN1CCN(C(=O)c2ccc(Nc3nc4c(C5=CCN(C(=O)CCC(F)(F)F)CC5)cccn4n3)cc2)CC(CO)C1 (stereo not drawn) [Example 2-144, 4,4,4-trifIuoro-1-[4-[2-[4-[6-(hydroxymethyl)-4-methyl-1,4-diazepane-1-carbonyl]anilino]-[1,2,4]triazolo[1,5-a]pyridin-8-yl]-3,6-dihydro-2H-pyridin-1-yl]butan-1-one]	187 nM
